Reference: patent US20100273748A1, “ANTIMICROBIAL THERAPY” (priority 2006, published 2010)

Assays:
S. aureus [1] = experiment: Electron microscopy of bacterial cell wall lysis; format: cell-based
Staphylococcus aureus = experiment: Bacterial growth inhibition (turbidity OD600) with or without carbonate; format: cell-based; settings: for inhibition of S. aureus growth: 32 μM LL-37
keratinocytes = experiment: Keratinocyte morphology, LDH release and Annexin V/propidium iodide staining; format: cell-based, human; settings: 24 hours after butyrate alone or in combination with 1,25D3
S. aureus [2] = experiment: Release of cytoplasmic-expressed beta-galactosidase (membrane disruption); format: cell-based; settings: with versus without NaHCO3
Protocol: Release of cytoplasmic-expressed beta-galactosidase was measured from bacteria with and without the addition of NaHCO3.

CYP27B1 = experiment: qPCR of CYP27B1 mRNA in cultured keratinocytes; format: cell-based, human; settings: 24 hours, TGF 1 μg/ml, TNFα 20 ng/ml, TLR2 ligand Malp-2
Protocol: Cell culture and stimuli. Human keratinocytes were grown in serum-free EpiLife® cell culture media (Cascade Biologics; Portland, Oreg.) containing 0.06 mM Ca2+ and 1× EpiLife® defined growth supplement (EDGS) at 37° C. under standard tissue culture conditions. Stock cultures were maintained for up to five passages in this media with the addition of 50 U/mL penicillin and 50 μg/mL streptomycin. HaCaT keratinocytes were cultured in DMEM (Sigma, St. Louis, Mo.) with 10% FCS. Cells at 50-70% confluence were stimulated in fresh medium after preincubation with 1,25(OH)2 vitamin D3 (1,25D3; 0.1-100 nM, 4-24 h; Sigma). Alternatively, NHEK were stimulated in the presence of 1,25D3 (0.1-100 nM). […]
Real-time RT-PCR (qPCR). […] Expression of cathelicidin and GAPDH was analysed by real-time RT-PCR. […] Fold induction relative to the vehicle treated control in in vitro experiments was calculated using the comparative Ct method, where ΔΔCt is ΔCt(stimulant)-ΔCt(vehicle), ΔCt is Ct(gene)-Ct(GAPDH) and Ct is the cycle at which an arbitrary detection threshold is crossed. For quantification of transcript abundance in tissue samples target gene expression was normalized to GAPDH and compared to non-treated or non-injured skin.

neutrophil and mast cell = experiment: Neutrophil and mast cell chemotaxis; format: cell-based
IL-8 = IL-8 release from normal human keratinocytes (ELISA); format: cell-based
Protocol: Measurement of IL-8 release from keratinocytes Normal human keratinocytes (NHK) were cultured in EpiLife cell medium (Cascade Biologics, Portland, Oreg.) containing 0.06 mM Ca2+, 1× EpiLife-defined growth supplement (EDGS), 50 U/ml penicillin and […] streptomycin (Invitrogen, Carlsbad, Calif.). Keratinocytes were seeded in a 96-well plate and grown to confluence under standard tissue culture conditions. Cells were incubated with […] LL-37 or LL37-derived peptides (e.g., cathelicidin functional fragments) for 8 hours at 37° C. Supernatants were collected and stored at −20° C. overnight. IL-8 ELISA Assay was performed according to the manufacturer's instructions (BD OptEIA, Pharmingen, San Diego, Calif.). Supernatants were diluted 1:10 for assay. Simultaneously, LDH assays (Roche, Indianapolis, Ind.) were used to assess the cytotoxicity of peptides to keratinocytes. LDH release following peptide exposure was compared to release induced by 1% Triton X100.

[3] = test system: Staphylococcus aureus mprF; experiment: Radial diffusion assay; format: cell-based
Protocol: Sweat collection and processing. Sweat was collected on paper tissues (Kimwipes, Kimberly-Clark, Ga.) from healthy volunteers after exercise. After collection, 20 ml of sweat was centrifuged at 2000 g for 15 min. at 4° C., filtered through a […] (Acrodisc syringe filter, 0.2 mm, low protein binding, Fisher scientific, Tustin, Calif.), and frozen at −80° C. For some experiments sweat was lyophilized to dryness, then suspended in 400 μl of distilled water (DW: cell culture grade, endotoxin free, GibcoBRL, Grand island, NY). For analysis of LL37 processing by sweat, 1.6 nmol of LL-37 synthetic peptide was incubated in 50 ml of sweat for 0, 1, 6, 24 hrs at 37° C. or 4° C. In some experiments proteinase inhibitors including; mixed protease inhibitor cocktail (1tab/10 ml, Roche, Indianapolis, Ind.), […] Bestatin, 10 mg/ml E-64, 10 mg/ml Aprotinin, (Sigma, St Louis, Mo.); 100 mM AEBSF, 100 mM Neutrophil elastase inhibitor (NEI) or 100 mM leukocyte elastase inhibitor (LEI) (Calbiochem, San Diego, Calif.) were added during incubation. After incubation, 2 ml was assayed by radial diffusion assay to determine antibacterial activity. For analysis by HPLC 32 nmoles LL-37 was incubated in 100u1. To control for potential contamination from paper tissues, parallel processing was done on tissues soaked in phosphate-buffered saline (PBS:137 mM NaCl, 2.7 mM KCL, 4.3 mM Na2HPO4-H2O, 1.4 mM KH2PO4, pH 7.4). No antimicrobial activity was detectable in these preparations. Protein concentrations were evaluated by BCA assay (protein assay reagent, Pierce, Rockford, Ill.) or Bradford protein assay (Bio-Rad, Hercules, Calif.) according to manufacture's instructions. Human tissue and blood collection was approved by the UCSD Human Research Protection Program.
Antimicrobial assays. For screening of antimicrobial activity of HPLC fractions, radial diffusion assay was used. Lyophilized HPLC fractions were dissolved in DW (GibcoBRL, Grand Island, N.Y.), and tested against Staphylococcus aureus mprF. Thin plates (1 mm) of 1% agarose in 0.5% tryptone containing approximately 1×10^6 cells/ml of S. aureus mprF were used. 1 mm wells were punched in the plates and […] of samples dissolved in tissue culture grade sterile water were loaded in each well.

FPRL-1 = molecular target: T1, FPRL-1 (Homo sapiens, UniProt P25090); experiment: FPRL-1 binding
T1 sequence (P25090 1-351): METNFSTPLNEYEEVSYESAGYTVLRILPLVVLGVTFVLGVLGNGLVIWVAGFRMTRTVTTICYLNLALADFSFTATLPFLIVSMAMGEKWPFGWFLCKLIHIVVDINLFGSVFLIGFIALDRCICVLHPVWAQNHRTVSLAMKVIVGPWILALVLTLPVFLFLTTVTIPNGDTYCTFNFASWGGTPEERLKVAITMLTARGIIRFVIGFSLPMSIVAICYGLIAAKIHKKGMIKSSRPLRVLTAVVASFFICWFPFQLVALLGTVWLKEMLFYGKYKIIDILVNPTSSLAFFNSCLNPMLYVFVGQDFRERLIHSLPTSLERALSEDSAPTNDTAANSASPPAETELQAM

dendritic cells = experiment: Pro-inflammatory chemokine release from dendritic cells; format: cell-based
[4] = test system: wild-type S. aureus (clinical isolate); experiment: Radial diffusion assay; format: cell-based

O=C(O)O [NaHCO3]
bacterial cell wall damage (EM) (S. aureus [1]; 25 mm NaHCO3 alone): no visible effect
effect of NaHCO3 alone on bacterial growth (Staphylococcus aureus; 25 mM NaHCO3, no peptide): without effecting bacterial growth
effect of NaHCO3 alone on bacterial growth (Staphylococcus aureus; high concentrations of NaHCO3): retarded the growth of S. aureus
increase of LL-37 antimicrobial activity by carbonate containing compound (Staphylococcus aureus; medium with 32 μM LL-37, pH 7.4, KHCO3 and Na2CO3 at 50 mM): responsible for this increase

CCCC(=O)O [butyrate]
cell morphology, cell death or apoptosis (keratinocytes): no change was seen in cell morphology, cell death or apoptosis

Polymyxin B
leakage of cytoplasmic protein (beta-galactosidase) (S. aureus [2]): induces greater leakage of cytoplasmic protein with carbonate

TNFα
CYP27B1 expression (CYP27B1): had no effect

LLGDFFRKSKEKIGKEFKRIVQRIKDFLRNLVPRTES [LL-37]
bacterial cell wall damage (EM) (S. aureus [1]; 32 μM LL-37, absence of NaHCO3, four hours): caused a small amount of damage to bacterial cell walls
bacterial cell wall damage (EM) (S. aureus [1]; 32 μM LL-37 with 25 mM NaHCO3, four hours): totally ablated them
neutrophil and mast cell chemotaxis (neutrophil and mast cell): induces neutrophil and mast cell chemotaxis
pro-inflammatory release from keratinocytes (IL-8): induces pro-inflammatory release
zone of inhibition after incubation of LL-37 in PBS or distilled water ([3]; identical conditions in PBS or distilled water): did not affect activity
zone of inhibition after incubation of LL-37 in sweat ([3]; incubation at 37° C. in sweat): increased the zone of inhibition and apparent antimicrobial activity
zone of inhibition after incubation of LL-37 in sweat ([3]; incubation in sweat at 4° C.): did not occur at 4 °C
binding to FPRL-1 (FPRL-1): bind FPRL-1
inhibition of S. aureus growth (Staphylococcus aureus; TSB media alone, or with NaCl and FBS): inhibited Staphalococcus aureus growth poorly
inhibition of S. aureus growth (Staphylococcus aureus; in the presence of MEM buffers): inhibition was greatly increased
growth of S. aureus (Staphylococcus aureus; 32 μM LL-37 with 25 mM NaHCO3, pH 7.4): complete inhibition of bacterial growth
antimicrobial activity of LL-37, bicarbonate versus pH (Staphylococcus aureus; 50 mM NaHCO3 or 50 mM glycine buffer at various pH): Only bicarbonate containing media was able to confer increased antimicrobial activity
change of minimal inhibitory concentration (MIC) by NaHCO3 (Staphylococcus aureus; 20% TSB, 1 mM NaH2PO4, with or without 50 mM NaHCO3, pH 7.4): greatly reduced
pro-inflammatory chemokine release from dendritic cells (dendritic cells): blocks pro-inflammatory chemokine release
Radial Diffusion Assay, minimal inhibitory concentration (MIC), S. aureus (wt) [4]: 4 μm
leakage of cytoplasmic protein (beta-galactosidase) (S. aureus [2]): induces greater leakage of cytoplasmic protein with carbonate
